How the values were obtained:
bearded sprangletop = test: Test D flooded paddy test; type: in vivo, Leptochloa fascicularis; details: 21 days, scale 0 to 100
Excerpt: (§1) Three plastic pots (ca. 16-cm diameter) per rate were partially filled with sterilized Tama silt loam soil comprising a 35:50:15 ratio of sand, silt and clay and 2.6% organic matter. Separate plantings for each of the three pots were as follows. Seeds from the U.S. of ducksalad (Heteranthera limosa (Sw.) Willd.), smallflower umbrella sedge (Cyperus difformis L.) and purple redstem (Ammannia coccinea Rottb.), were planted into one 16-cm pot for each rate. Seeds from the U.S. of rice flatsedge (Cyperus iria L.), bearded sprangletop (Leptochloa fascicularis (Lam.) Gray), one stand of 9 or 10 water seeded rice seedlings (Oryza sativa L. cv. ‘Japonica—M202’), and one stand of 6 transplanted rice seedlings (Oryza sativa L. cv. ‘Japonica—M202’) were planted into one 16-cm pot for each rate. Seeds from the U.S. of barnyardgrass (Echinochloa crus-galli (L.) Beauv.), late watergrass (Echinochloa oryzicola Vasinger), early watergrass (Echinochloa oryzoides (Ard.) Fritsch) and junglerice (Echinochloa colona (L.) Link) were planted into one 16-cm pot for each rate. Plantings were sequential so that crop and weed species were at the 2.0 to 2.5-leaf stage at time of treatment.
(§2) Potted plants were grown in a greenhouse with day/night temperature settings of 29.5/26.7° C., and supplemental balanced lighting was provided to maintain a 16-hour photoperiod. Test pots were maintained in the greenhouse until test completion.
(§3) At time of treatment, test pots were flooded to 3 cm above the soil surface, treated by application of test compounds directly to the paddy water, and then maintained at that water depth for the duration of the test. Effects of treatments on rice and weeds were visually evaluated by comparison to untreated controls after 21 days. Plant response ratings are reported on a 0 to 100 scale; where 0 is no effect and 100 is complete control. A dash (-) response means no test result.

downy bromegrass = test: Test E pre-/postemergence herbicide test; type: in vivo, Bromus tectorum
Summary of the method: (§4)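 Greenhouse whole-plant test: compounds formulated in a non-phytotoxic solvent mixture with surfactant were applied preemergence to planted seeds and, concurrently, postemergence to plants 2 to 18 cm tall. Response was scored visually after 12 to 14 days, 0 meaning no effect and 100 complete control.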

johnsongrass = test: Test E pre-/postemergence herbicide test; type: in vivo, Sorghum halepense
Summary of the method: as §4

junglerice = test: Test D flooded paddy test; type: in vivo, Echinochloa colona; details: 21 days, scale 0 to 100
Excerpt: as §1, §2, §3

early watergrass = test: Test D flooded paddy test; type: in vivo, Echinochloa oryzoides; details: 21 days, scale 0 to 100
annual bluegrass = test: Test E pre-/postemergence herbicide test; type: in vivo, Poa annua
Summary of the method: as §4

kochia = test: Test E pre-/postemergence herbicide test; type: in vivo, Kochia scoparia; details: Preemergence
Summary of the method: as §4

late watergrass = test: Test D flooded paddy test; type: in vivo, Echinochloa oryzicola; details: 21 days, scale 0 to 100
Excerpt: as §1, §2, §3

pitted morningglory = test: Test E pre-/postemergence herbicide test; type: in vivo, Ipomoea lacunosa
Summary of the method: as §4

tropical spiderwort = test: Test E pre-/postemergence herbicide test; type: in vivo, Commelina benghalensis
Summary of the method: as §4

bipinnate beggarticks = test: Test E pre-/postemergence herbicide test; type: in vivo, Bidens bipinnata; details: Preemergence
Excerpt: Seeds of plant species selected from bipinnate beggarticks (Bidens bipinnata L.), hairy beggarticks (Bidens radiata Thuill.), bermudagrass (Cynodon dactylon (L.) Pers.), Surinam grass (Urochloa decumbens (Staph) R. D. Webster, previously named Brachiaria decumbens Stapf), large crabgrass (Digitaria sanguinalis (L.) Scop.), green foxtail (Setaria viridis (L.) P. Beauv.), goosegrass (Eleusine indica (L.) Gaertn.), johnsongrass (Sorghum halepense (L.) Pers.), kochia (Kochia scoparia (L.) Schrad.), pitted morningglory (Ipomoea lacunosa L.), purple nutsedge (Cyperus rotundus L.), common ragweed (Ambrosia elatior L.), mustard (Brassica nigra (L.) W. D. J. Koch), guineagrass (Panicum maximum Jacq.), dallisgrass (Paspalum dilatatum Poir.), barnyardgrass (Echinochloa crus-galli (L). P. Beauv.), southern sandbur (Cenchrus echinatus L.), common sowthistle (Sonchus oleraceous L.), prickly sida (Sida spinosa L.), Italian ryegrass (Lolium multiflorum Lam.), common purslane (Portulaca oleracea L.), broadleaf signalgrass (Brachiaria platyphylla (Griseb.) Nash), common groundsel (Senecio vulgaris L.), common chickweed (Stellaria media (L.) Vill/Cyr.), tropical spiderwort (Commelina benghalensis L.), annual bluegrass (Poa annua L.), downy bromegrass (Bromus tectorum L.), itchgrass (Rottboellia cochinchinensis (L.) L.f.), quackgrass (Elytrigia repens (L.) Nevski), Canada horseweed (Erigeron Canadensis L.), field bindweed (Convolvulus arvensis L.), spotted spurge (Euphorbia maculata L.), common mallow (Malva sylvestris (=s silvestris) L.), and Russian thistle (Salsola kali L. ssp. Ruthenica (Iljin) Soo) were planted and treated preemergence with test chemicals formulated in a non-phytotoxic solvent mixture which included a surfactant.
At the same time, plants selected from these weed species were treated with postemergence applications of some of the test chemicals formulated in the same manner. Plants ranged in height from 2 to 18 cm (1- to 4-leaf stage) for postemergence treatments. Treated plants and controls were maintained in a greenhouse for 12 to 14 days, after which time all species were compared to controls and visually evaluated. Plant response ratings, summarized in Table E, are based on a scale of 0 to 100 where 0 is no effect and 100 is complete control. A dash (-) response means no test result.

[1] = Postemergence, 500 g ai/ha, scale 0 to 100
[2] = Postemergence, 250 g ai/ha, scale 0 to 100
[3] = Preemergence, 62 g ai/ha, scale 0 to 100
[4] = Preemergence, 125 g ai/ha, scale 0 to 100
[5] = Preemergence, 250 g ai/ha, scale 0 (no effect) to 100 (complete control)
[6] = Preemergence, 500 g ai/ha, scale 0 (no effect) to 100 (complete control)
[7] = postemergence, 125 g ai/ha, scale 0 to 100
[8] = 250 g ai/ha, scale 0 (no effect) to 100 (complete control)
[9] = 500 g ai/ha, scale 0 (no effect) to 100 (complete control)

`CCNC(=O)c1ccnc(NC(=O)c2cc(C(C)(C)C)nn2CC)c1` [Compound 152] was tested, and the “Plant response rating, Sprangletop, Bearded” value (bearded sprangletop; 8 g ai/ha) was 30, the “Plant response rating, Sprangletop, Bearded” value (bearded sprangletop; 16 g ai/ha) was 30 and the “Plant response rating, Sprangletop, Bearded” value (bearded sprangletop; 32 g ai/ha) was 30. The “Plant response rating, Sprangletop, Bearded” value (bearded sprangletop; 64 g ai/ha) was 35, the “Plant response rating, Sprangletop, Bearded” value (bearded sprangletop; 125 g ai/ha) was 40 and the “Plant response rating, Bromegrass, Downy” value (downy bromegrass; [1]) was 80. For the same compound, the “Plant response rating, Bromegrass, Downy” value (downy bromegrass; [2]) was 75, the “Plant response rating, Bromegrass, Downy” value (downy bromegrass; [3]) was 0 and the “Plant response rating, Bromegrass, Downy” value (downy bromegrass; [4]) was 30. The “Plant response rating, Bromegrass, Downy” value (downy bromegrass; [5]) was 60, the “Plant response rating, Bromegrass, Downy” value (downy bromegrass; [6]) was 90 and the “Plant response rating, Johnsongrass” value (johnsongrass; [1]) was 95. The “Plant response rating, Johnsongrass” value (johnsongrass; [2]) was 80, the “Plant response rating, Johnsongrass” value (johnsongrass; [3]) was 30 and the “Plant response rating, Johnsongrass” value (johnsongrass; [4]) was 50. The “Plant response rating, Johnsongrass” value (johnsongrass; [5]) was 80, the “Plant response rating, Johnsongrass” value (johnsongrass; [6]) was 85 and the “Plant response rating, Johnsongrass” value (johnsongrass; [7]) was 70. The “Plant response rating, Junglerice” value (junglerice; 8 g ai/ha) was 0, the “Plant response rating, Junglerice” value (junglerice; 16 g ai/ha) was 0 and the “Plant response rating, Junglerice” value (junglerice; 32 g ai/ha) was 0. For the same compound, the “Plant response rating, Junglerice” value (junglerice; 64 g ai/ha) was 0, the “Plant response rating, Junglerice” value (junglerice; 125 g ai/ha) was 30 and the “Plant response rating, Watergrass, Early” value (early watergrass; 8 g ai/ha) was 0. The “Plant response rating, Watergrass, Early” value (early watergrass; 16 g ai/ha) was 0, the “Plant response rating, Watergrass, Early” value (early watergrass; 32 g ai/ha) was 0 and the “Plant response rating, Watergrass, Early” value (early watergrass; 64 g ai/ha) was 0. For the same compound, the “Plant response rating, Watergrass, Early” value (early watergrass; 125 g ai/ha) was 45, the “Plant response rating, Bluegrass” value (annual bluegrass; [1]) was 85 and the “Plant response rating, Bluegrass” value (annual bluegrass; [2]) was 85. For the same compound, the “Plant response rating, Bluegrass” value (annual bluegrass; [3]) was 60, the “Plant response rating, Bluegrass” value (annual bluegrass; [4]) was 80 and the “Plant response rating, Bluegrass” value (annual bluegrass; [5]) was 95. The “Plant response rating, Bluegrass” value (annual bluegrass; [6]) was 95, the “Plant response rating, Bluegrass” value (annual bluegrass; [7]) was 60 and the “Plant response rating, Kochia” value (kochia; 62 g ai/ha, scale 0 to 100) was 0. The “Plant response rating, Kochia” value (kochia; 125 g ai/ha, scale 0 to 100) was 85, the “Plant response rating, Kochia” value (kochia; [8]) was 85 and the “Plant response rating, Kochia” value (kochia; [9]) was 95. For the same compound, the “Plant response rating, Watergrass, Late” value (late watergrass; 8 g ai/ha) was 0, the “Plant response rating, Watergrass, Late” value (late watergrass; 16 g ai/ha) was 0 and the “Plant response rating, Watergrass, Late” value (late watergrass; 32 g ai/ha) was 15. For the same compound, the “Plant response rating, Watergrass, Late” value (late watergrass; 64 g ai/ha) was 20, the “Plant response rating, Watergrass, Late” value (late watergrass; 125 g ai/ha) was 40 and the “Plant response rating, Morningglory” value (pitted morningglory; [1]) was 30. For the same compound, the “Plant response rating, Morningglory” value (pitted morningglory; [2]) was 20, the “Plant response rating, Morningglory” value (pitted morningglory; [3]) was 10 and the “Plant response rating, Morningglory” value (pitted morningglory; [4]) was 10. For the same compound, the “Plant response rating, Morningglory” value (pitted morningglory; [5]) was 40, the “Plant response rating, Morningglory” value (pitted morningglory; [6]) was 40 and the “Plant response rating, Morningglory” value (pitted morningglory; [7]) was 10. The “Plant response rating, Spiderwort” value (tropical spiderwort; [1]) was 80, the “Plant response rating, Spiderwort” value (tropical spiderwort; [2]) was 10 and the “Plant response rating, Spiderwort” value (tropical spiderwort; [3]) was 10. For the same compound, the “Plant response rating, Spiderwort” value (tropical spiderwort; [4]) was 20, the “Plant response rating, Spiderwort” value (tropical spiderwort; [5]) was 75 and the “Plant response rating, Spiderwort” value (tropical spiderwort; [6]) was 80.
`Cc1nn(C(C)(C)C)nc1C(=O)Nc1cccc(C(=O)N(C)C)c1` [Compound 391] was tested, and the “Plant response rating, Bromegrass, Downy” value (downy bromegrass; [3]) was 10, the “Plant response rating, Bromegrass, Downy” value (downy bromegrass; [4]) was 30 and the “Plant response rating, Bromegrass, Downy” value (downy bromegrass; [5]) was 95. For the same compound, the “Plant response rating, Bromegrass, Downy” value (downy bromegrass; [6]) was 95, the “Plant response rating, Johnsongrass” value (johnsongrass; [3]) was 40 and the “Plant response rating, Johnsongrass” value (johnsongrass; [4]) was 60. The “Plant response rating, Johnsongrass” value (johnsongrass; [5]) was 85, the “Plant response rating, Johnsongrass” value (johnsongrass; [6]) was 100 and the “Plant response rating, Bluegrass” value (annual bluegrass; [3]) was 95. The “Plant response rating, Bluegrass” value (annual bluegrass; [4]) was 95, the “Plant response rating, Bluegrass” value (annual bluegrass; [5]) was 95 and the “Plant response rating, Bluegrass” value (annual bluegrass; [6]) was 95. The “Plant response rating, Beggarticks, Bip.” value (bipinnate beggarticks; 62 g ai/ha, scale 0 to 100) was 40, the “Plant response rating, Beggarticks, Bip.” value (bipinnate beggarticks; 125 g ai/ha, scale 0 to 100) was 80 and the “Plant response rating, Beggarticks, Bip.” value (bipinnate beggarticks; [8]) was 100. For the same compound, the “Plant response rating, Beggarticks, Bip.” value (bipinnate beggarticks; [9]) was 100, the “Plant response rating, Morningglory” value (pitted morningglory; [3]) was 10 and the “Plant response rating, Morningglory” value (pitted morningglory; [4]) was 60. For the same compound, the “Plant response rating, Morningglory” value (pitted morningglory; [5]) was 80, the “Plant response rating, Morningglory” value (pitted morningglory; [6]) was 80 and the “Plant response rating, Spiderwort” value (tropical spiderwort; [4]) was 90. The “Plant response rating, Spiderwort” value (tropical spiderwort; [5]) was 90 and the “Plant response rating, Spiderwort” value (tropical spiderwort; [6]) was 95.
In the case of `CCc1nn(C(C)(C)CC)nc1C(=O)Nc1cccc(C(=O)N(C)C)c1` [Compound 372], the “Plant response rating, Bromegrass, Downy” value (downy bromegrass; [3]) is reported as 20, the “Plant response rating, Bromegrass, Downy” value (downy bromegrass; [4]) is reported as 70 and the “Plant response rating, Bromegrass, Downy” value (downy bromegrass; [5]) is reported as 80. For the same compound, the “Plant response rating, Bromegrass, Downy” value (downy bromegrass; [6]) was 85, the “Plant response rating, Johnsongrass” value (johnsongrass; [3]) was 30 and the “Plant response rating, Johnsongrass” value (johnsongrass; [4]) was 50. The “Plant response rating, Johnsongrass” value (johnsongrass; [5]) was 70, the “Plant response rating, Johnsongrass” value (johnsongrass; [6]) was 80 and the “Plant response rating, Bluegrass” value (annual bluegrass; [3]) was 30. For the same compound, the “Plant response rating, Bluegrass” value (annual bluegrass; [4]) was 80, the “Plant response rating, Bluegrass” value (annual bluegrass; [5]) was 95 and the “Plant response rating, Bluegrass” value (annual bluegrass; [6]) was 95. The “Plant response rating, Beggarticks, Bip.” value (bipinnate beggarticks; 62 g ai/ha, scale 0 to 100) was 10, the “Plant response rating, Beggarticks, Bip.” value (bipinnate beggarticks; 125 g ai/ha, scale 0 to 100) was 40 and the “Plant response rating, Beggarticks, Bip.” value (bipinnate beggarticks; [8]) was 50. For the same compound, the “Plant response rating, Beggarticks, Bip.” value (bipinnate beggarticks; [9]) was 60, the “Plant response rating, Morningglory” value (pitted morningglory; [3]) was 10 and the “Plant response rating, Morningglory” value (pitted morningglory; [4]) was 20. The “Plant response rating, Morningglory” value (pitted morningglory; [5]) was 50, the “Plant response rating, Morningglory” value (pitted morningglory; [6]) was 60 and the “Plant response rating, Spiderwort” value (tropical spiderwort; [4]) was 70. The “Plant response rating, Spiderwort” value (tropical spiderwort; [5]) was 70 and the “Plant response rating, Spiderwort” value (tropical spiderwort; [6]) was 80.

— patent US20060069132A1, “Azolecarboxamide herbicides” (priority 2004, published 2006)
